Entries after “also recorded” stand apart in the source; their conditions may differ.
Legend:
[1] = tested on: GAPDH mRNA; assay: GAPDH control transcript (Northern analysis, nuclear run-off); format: cell-based, human
[2] = tested on: IL-1β mRNA; assay: IL-1β mRNA stability with actinomycin D in THP-1 cells; format: cell-based, human; conditions: 2 μM LPG simultaneous with LPS 2 μg/ml, actinomycin D after 2 h
Procedure: THP-1 cells (10^7 cells/condition) were stimulated with 2 μg/ml LPS or 2 μg/ml LPS with 2 μM LPG at time 0 h. Actinomycin D (6 μg/ml) was added to all conditions 2 h later and cells were harvested by gentle scraping for extraction of total RNA at the designated time. The 2 h time point after LPS or LPS plus LPG treatment was used as the respective reference for comparison with residual IL-1β mRNA at the later time points. For each condition and time, the total RNA separated on agarose gel, transferred and immobilized on nylon membrane were probed with ^32P-labeled IL-1β cDNA or GAPDH cDNA.

[3] = tested on: E-selectin; assay: Endotoxin-induced E-selectin expression on endothelial cells (FACS); format: cell-based, human; conditions: LPG pretreatment 1 h
Procedure: (§1) Endothelial cells pretreated with LPG at indicated amounts for 1 h were subsequently challenged with endotoxin. Washed cells incubated with monoclonal antibody specific for E-selectin or ICAM-1 were counter stained with fluorescein labeled anti-murine antibody, fixed and analyzed by FACS.

[4] = tested on: NOS mRNA; format: cell-based, human; conditions: IFN-γ-primed macrophages; LPG 2 μM pretreatment; RT/PCR
[5] = tested on: human umbilical vein endothelial cells; assay: LPG and LPG fragment binding to endothelial cells (indirect immunofluorescence, FACS); conditions: LPG 1 μM
[6] = tested on: murine nitric oxide synthase activity; assay: Nitrite production (Griess assay) in RAW 264.7 cells; format: cell-based
Procedure: RAW 264.7 cells were treated with LPG 1 μM and simultaneously stimulated with endotoxin and mIFN-γ. Supernatants from each treatment condition were removed at 24, 48, and 72 hours, and nitrite production was measured by the Griess assay.
To determine whether LPG can alter NOS expression, a well characterized murine macrophage cell line, RAW 264.7 cells, were used to measure NOS activity. […] Because macrophages encounter LPG usually in the context of entry of the parasite, it was examined whether Leishmania promastigotes, upon entry into macrophages, transfer LPG onto the macrophage cell surfaces and inhibit nitrite production. L. donovani prosmastigotes (“Ld3”) within 15 minutes of attachment to human monocytes, THP-1 cells, or murine peritoneal macrcophages transferred LPG onto the surface of the macrophages, as determined by a monoclonal antibody against LPG and indirect fluorescent microscopy. Two hours after entering murine peritoneal macrophages, Ld3 promastigoes suppressed endotoxin- and IFN-γ induction of NOS activity; the inhibition was parasite dose dependent.

[7] = tested on: DNA sequence from the −310 to −57 region of the IL-1β promoter; assay: Gel shift assay of nuclear protein binding to IL-1β promoter DNA; format: cell-based, human; conditions: THP-1 cells treated with LPG; preliminary data
[8] = tested on: ICAM-1; assay: Endotoxin-induced ICAM-1 expression on endothelial cells (FACS); format: cell-based, human; conditions: LPG pretreatment 1 h
Procedure: as §1

[9] = tested on: endothelial cells; assay: Endothelial adhesion to monocytes (MM6) assay
Procedure: Endothelial cell were isolated from human umbilical veins by an established method as described. […] In all experiments, 2-4 passages of subcultured endothelial cells were used and were grown on fibronectin-precoated 96-well plates for 2-3 days prior to use.
On the day of the experiment, endothelial cells were treated with endotoxin (E. coli, J5, 10 ng/ml) for 4 h. MM6 (1×10^5 cells) were subsequently added to the endotoxin-stimulated endothelial cells. Monocyte adhesion was performed for 20 min at 37° C. Unbound MM6 cells were removed by washing (3×). Adhesion of MM6 onto endothelium was quantitated by counting the bound MM6 cells under a microscope. […] The values of triplicates were averaged, and variations between triplicates were <5%. […] For experiments to examine if LPG could inhibit endotoxin-mediated monocyte adhesion, the endothelial cells were first preincubated with LPG (2 μM) for 1-2 h at 37° C. prior to the addition of endotoxin.

[10] = tested on: THP-1 cells; assay: THP-1 cell viability; format: cell-based, human; conditions: LPG 0.01 to 2 μM, data not shown
[11] = tested on: tissue factor; assay: Tissue factor production by endothelial cells (one-stage clotting assay); format: cell-based, human
Procedure: Endothelial cell monolayers were pretreated with LPG for 1 hour and stimulated with endotoxin. Cultured endothelial cells, when stimulated by endotoxin, expressed high amounts of tissue factor. […] The production of tissue factor (in culture supernatant) is determined by a one-stage clotting assay. Helin et. al., “Allogeneic Induction of the Human T-cell-instructed Monocyte Procoagulant Response is Rapid and is Elicited by HLA-DR,” J. Exp. Med. 158: 962-75 (1983), which is hereby incorporated by reference.
To further examine if LPG can inhibit other endothelial cell functions, it was determined whether LPG inhibits thrombosis. Since thrombosis is mediated by the release of tissue factor (“TF”) by endothelial cells, the ability of LPG to inhibit TF production was evaluated. Cultured endothelial cells when stimulated by endotoxin express TF as determined by a one-stage clotting assay. Helin et. al., “Allogeneic Induction of the Human T-cell-instructed Monocyte Procoagulant Response is Rapid and is Elicited by HLA-DR,” J. Exp. Med. 158: 962-75 (1983), which is hereby incorporated by reference. […] To explore whether this effect was agonist specific, another agonist, TNF-α which is known to up-regulate TF generation, was used.

[12] = tested on: VCAM-1; assay: Endotoxin-induced VCAM-1 expression on endothelial cells (FACS); format: cell-based, human
[13] = tested on: IL-1β mRNA; assay: Northern analysis of IL-1β mRNA induction in THP-1 cells; conditions: for amount of IL-1β mRNA in response to LPS: LPS 2 μg/ml 4 h
Procedure: Human monocytes were cultured in endotoxin free complete medium as previously described. […] THP-1 cells were maintained in RPMI-1640 supplemented with 2 mM L-glutamine, 100 U/ml penicillin-streptomycin, 5×10^−5 M β-mercaptoethanol, and 10% heat-inactivated fetal bovine serum (FBS). For experiments to determine the effect of LPG, THP-1 cells (10×10^6 per condition) were washed with RPMI 1640 and resuspended in complete medium composed of RPMI-1640 supplemented with 2 mM L-glutamine, 100 U/ml penicillin and 100 μg/ml streptomycin. These cells were cultured in 24-well plates with or without 0.01 to 2 μM LPG (0.1 to 20 μg/ml) for different times either before (−h), simultaneously with (0 h) or after (+h) the addition of inducers of IL-1β (eg., LPS, TNF-α, or S. epidermidis). Peripheral blood monocytes enumerated after detachment using a rubber policeman were similarly treated or not with LPG and cultured with stimuli. Cell were stimulated with 0.1 to 3 μg/ml LPS, TNF-α (50 ng/ml), 25 to 50 ng/ml PMA for 4 to 24 h, or opsonized heat-killed S. epiderimidis at ratio of 10 particles per cell.
Cells treated with or without LPG and/or inducers of IL-1β were harvested by gentle scrapping using a rubber policeman and sedimented by centrifugation at 500 g for 5 minutes in a microfuge. Total RNA was extracted using RNA STAT-60 solution (TEL-TEST “B” Inc., Friendswood, Tex.), based on a single step method for RNA isolation (P. Chomczynski and N. Sacchi, “Single-step Method of RNA Isolation by Acid Guanidinium Thiocyanate-phenol-chloroform Extraction,” Anal. Biochem., 162:156-59 (1987), hereby incorporated by reference), and quantitated by spectrophotometry. Equal amount of total RNA (15-20 μg per sample) was denatured, loaded onto 1.2% agarose-formaldehyde gel, run for 4 h at 30 volts and subsequently transferred by capillary action onto nylon membrane (0.45 μm pore size, NYTRAN, S&S, Keene, N.H.). Membranes were prehybridized at 42° C. for 4 h in prehybridization buffer (50% formamide, 6×SSPE, and 0.5% SDS), and hybridized in hybridization buffer (50% formamide, 6×SSPE, and 5 SDS) containing 10-15×10^6 cpm of random-priming ^32p-labeled IL-1β cDNA (Boehringer Mannheim GmbH, Mannheim, Germany). […] Washed membranes were exposed to KODAK X-OMAT AR films for 24 to 72 h and to phosphor screens (Molecular Dynamics Ltd., Kent, Tenn.) for 24-28 h. Quantitative analysis of the specific bands was performed using Phosphor Imager Analyzer. […] All percent suppression of IL-1β mRNA values were normalized by the amount of GAPDH present in each condition which varied less than 10% between conditions because equivalent amounts of total RNA were loaded for electrophoresis.

[14] = tested on: endothelial cells; assay: ^3H-lyso-PI binding to endothelial cells; design: species or system human; conditions: cold-LPG competition at 20×molar excess; n=2
Procedure: To evaluate whether lyso-PI may directly bind to endothelial cells, endothelial cells (10^6 per ml) were incubated with ^3H-lyso-PI (1 μM [specific activity, ˜10,000 cpm/nmole], 45 min, 25° C.). As a control, endothelial cells were pretreated with LPG (20 μM, 15 min, 25° C.) before the incubation with ^3H-lyso-PI. Following incubation, the cell suspension was layed onto silicone oil (Silicones FC-50, General Electric, Waterford, N.Y.) and cell-bound ^3H-lyso-PI was separated from free-^3H-lyso-PI by centrifugation (10,000 g, 10 min, room temperature). The amount of ^3H-lyso-PI in the cell pellet and in the supernatant were solubilized in Ecoscint (National Diagnostics, Highland Park, N.J.) and quantitated by a β-emission counter (Beckman Instruments, Palo Alto, Calif.).

[15] = tested on: TNF-α transcription; assay: Nuclear run-on assay, TNF-α transcription; format: cell-based, human; conditions: LPG 1 μM pretreatment; LPS 1 μg/ml

lipophosphoglycan [LPG]
effect on constitutive transcription of GAPDH mRNA ([1]; THP-1, Northern analysis): not affected; also recorded: no effect
effect on GAPDH transcription ([1]; nuclear run-on assay (Example 35)): no effect
enhancement of rate of IL-1β mRNA degradation [2]: approximately 30%
effect on endotoxin-mediated expression of E-selectin [3]: strongly suppressed; also recorded: blockage or suppression
effect on M. tuberculosis-induction of NOS mRNA [4]: suppressed
time at which LPG binding was obvious [5]: 16 min
LPG binding ([5]; 1 h): significant LPG was bound
effect on nitrite production ([6]; RAW 264.7, LPG 1 μM simultaneous with endotoxin and IFN-γ): inhibited the enhancement of nitrite production
reversal of the inhibition by higher amounts of agonists ([6]; higher amounts of endotoxin and IFN-γ): could not reverse
induction of nuclear protein(s) binding to promoter DNA sequence [7]: induced the presence of a nuclear protein(s) that bound a DNA sequence derived from this region
effect on endotoxin-mediated expression of ICAM-1 [8]: strongly suppressed; also recorded: blockage or suppression
inhibition of endotoxin-mediated monocyte adhesion (dose-dependent 0.01 μM to 2 μM) ([9]; 2 μM LPG pretreatment, endotoxin 10 ng/ml 4 h): completely inhibiting
effect on IL-1β-mediated endothelial cell adhesion ([9]; IL-1β 100 U/ml, n=4): lack of LPG inhibitory activity
inhibition of endotoxin-mediated monocyte adhesion (time-dependent) ([9]; LPG 2 μM, 2 h pretreatment, endotoxin 10 ng/ml 4 h): completely abrogating
TNF-α-mediated endothelial adhesion to monocytes ([9]; LPG plus TNF-α, TNF-α alone 1,750±100, basal 100±50, n=6): 1,650±130 cell/mm^2
minimal pretreatment time required for inhibition of endotoxin-mediated monocyte adhesion ([9]; endothelial cells): 15 to 30 min
effect on TNF-α-mediated endothelial adhesion to monocytes ([9]; n=6): did not affect
IC50 ([9]; read-out: half-maximal inhibitory concentration, endotoxin-mediated monocyte adhesion): ~600 nM
effect on cell viability [10]: not affected
effect on TNF-α induction of endothelial cell production of TF [11]: no effect
effect on endotoxin-induction of TF ([11]; LPG 2 μM): completely abrogated
effect on endotoxin induction of TF production ([11]; LPG pretreatment 1 hour): dose-dependent inhibition
effect on endotoxin-mediated expression of VCAM-1 [12]: strongly suppressed
effect on IL-1β mRNA expression in monocytes ([13]; LPG added simultaneously with the endotoxin): exerted an inhibitory effect
effect of washing to remove LPG on LPG's ability to suppress LPS induction of IL-1β mRNA ([13]; THP-1, 1 or 2 μM LPG 2 h, washed twice, then LPS 4 h): no effect
suppression of LPS induction of IL-1β mRNA ([13]; THP-1, LPG 2 μM added between 2 h before to 1 h after LPS 2 μg/ml): greater than 90%
inhibition of TNF-α induced IL-1β mRNA ([13]; THP-1, LPG 2 μM pretreatment 2 h, TNF-α 50 ng/ml, mean±SD, N=5): approximately 50%±10%
inhibition of S. epidermidis-induced IL-1β mRNA ([13]; THP-1, LPG 2 μM pretreatment for 2 h, N=3): 30±10%
suppression of S. epidermidis-induced IL-1β mRNA ([13]; THP-1, LPG 2 μM simultaneous with opsonized S. epidermidis, N=3): greater than 80±19%
suppression of PMA induction of IL-1β mRNA ([13]; THP-1, LPG 2 μM, PMA 25 or 50 ng/ml, N=3): did not suppress
inhibitory activity on LPS induction of IL-1β mRNA ([13]; THP-1, LPG 1 or 2 μM added 4 h before LPS 2 μg/ml): lost
effect on S. epidermidis-induced IL-1β mRNA ([13]; THP-1, LPG 2 h after S. epidermidis induction): minimal to no demonstrable effect
suppression of IL-1β mRNA ([13]; THP-1, LPG added +2 h after LPS stimulation): 70%
amount of IL-1β mRNA in response to LPS ([13]; THP-1, pretreated 2 h with 1 μM LPG): lower amounts of IL-1β mRNA
amount of IL-1β mRNA in response to LPS ([13]; THP-1, pretreated 2 h with 2 μM LPG): little or no IL-1β mRNA detected
maximum inhibition of IL-1β mRNA (dose-dependent) ([13]; THP-1, pretreated 2 h with LPG 0.01 to 2.0 μM, LPS 0.1 to 3 μg/ml): greater than 90%
inhibition of endotoxin-mediated IL-1β mRNA production ([13]; THP-1, pretreatment with LPG 2 μM, endotoxin 2 μg/ml): completely inhibited
inhibition of ^3H-lyso-PI binding [14]: 29±3%
suppression of endotoxin-mediated TNF-α transcription [15]: −70%

— patent publication US6491922B1, “Methods and compounds for treating autoimmune and vascular disease” (Cornell Research Foundation, Inc., priority 1996, dated 2002)
